Experimental data: ChEMBL document CHEMBL1153355, “Synthesis and cytotoxic activities of novel phenacylimidazolium bromides” (Bioorg Med Chem Lett, 2009)

Columns and labels:
Assay type in all cases: functional, cell-based
[1] = system: HL-60; assay: Cytotoxicity against human HL60 cells by MTT assay
[2] = system: A-431; assay: Cytotoxicity against human A431 cells by MTT assay
[3] = system: SK-OV-3; assay: Cytotoxicity against human SKOV3 cells by MTT assay
[4] = system: MKN-28; assay: Cytotoxicity against human MKN28 cells by MTT assay
[5] = system: K562; assay: Cytotoxicity against human K562 cells by MTT assay
[6] = system: SMMC-7721; assay: Cytotoxicity against human SMMC7721 cells by MTT assay
[7] = system: HEp-2; assay: Cytotoxicity against human Hep2 cells by MTT assay
[8] = Cytotoxicity against human GLC15 cells by MTT assay

## Cc1cc(C)c(-n2cc[n+](CC(=O)c3ccc(Br)cc3)c2)c(C)c1
[1]
  IC50: 13.4 µM
[2]
  IC50: 5.4 µM
[3]
  IC50: 33.1 µM
[4]
  IC50: 76.6 µM
[5]
  IC50: 21.4 µM
[6]
  IC50: 23.8 µM
[7]
  IC50: 22.1 µM
[8]
  IC50: 36.9 µM

## CC(C)c1cccc(C(C)C)c1-n1cc[n+](CC(=O)c2ccc3c(c2)COC3)c1
[1]
  IC50: 4.5 µM
[2]
  IC50: 5.1 µM
[3]
  IC50: 25.5 µM
[4]
  IC50: 59.6 µM
[5]
  IC50: 12.1 µM
[6]
  IC50: 44.3 µM
[7]
  IC50: 11.6 µM
[8]
  IC50: 36.9 µM

## Cc1cc(C)c(-n2cc[n+](CC(=O)c3ccc4ccccc4c3)c2)c(C)c1
[1]
  IC50: 2.8 µM
[2]
  IC50: 4.4 µM
[3]
  IC50: 2.1 µM
[4]
  IC50: 8.7 µM
[5]
  IC50: 2.7 µM
[6]
  IC50: 6.8 µM
[7]
  IC50: 0.7 µM
[8]
  IC50: 0.4 µM

## CC(C)c1cccc(C(C)C)c1-n1cc[n+](CC(=O)c2ccc3ccccc3c2)c1
[1]
  IC50: 1.5 µM
[2]
  IC50: 14.7 µM
[3]
  IC50: 1.9 µM
[4]
  IC50: 9.6 µM
[5]
  IC50: 0.4 µM
[6]
  IC50: 10.5 µM
[7]
  IC50: 3.5 µM
[8]
  IC50: 6.2 µM

## COc1ccc(C(=O)C[n+]2ccn(-c3c(C(C)C)cccc3C(C)C)c2)cc1
[1]
  IC50: 1.1 µM
[2]
  IC50: 4.2 µM
[3]
  IC50: 5 µM
[4]
  IC50: 10 µM
[5]
  IC50: 2.6 µM
[6]
  IC50: 9.9 µM
[7]
  IC50: 2.8 µM
[8]
  IC50: 5.1 µM

## COc1ccc(CCn2cc[n+](CC(=O)c3ccc4ccccc4c3)c2)cc1OC
[1]
  IC50: 54.2 µM
[2]
  IC50: 75 µM
[3]
  IC50: 11 µM
[4]
  IC50: 85.4 µM
[5]
  IC50: 169 µM
[6]
  IC50: 34.4 µM
[7]
  IC50: 77.2 µM
[8]
  IC50: 50.2 µM

## CC(C)(C)n1cc[n+](CC(=O)c2ccccc2)c1
[1]
  IC50: > 200 µM
[2]
  IC50: > 200 µM
[3]
  IC50: > 200 µM
[4]
  IC50: > 200 µM
[5]
  IC50: > 200 µM
[6]
  IC50: > 200 µM
[7]
  IC50: > 200 µM
[8]
  IC50: > 200 µM

## O=C(C[n+]1ccn(C23CC4CC(CC(C4)C2)C3)c1)c1ccccc1
[1]
  IC50: 39 µM
[2]
  IC50: 13.3 µM
[3]
  IC50: 59.3 µM
[4]
  IC50: 198 µM
[5]
  IC50: > 200 µM
[6]
  IC50: 108 µM
[7]
  IC50: 93.4 µM
[8]
  IC50: 108 µM

## COc1ccc(C(=O)C[n+]2ccn(CCc3ccc(OC)c(OC)c3)c2)cc1
[1]
  IC50: 50.4 µM
[2]
  IC50: 188 µM
[3]
  IC50: 37.4 µM
[4]
  IC50: > 200 µM
[5]
  IC50: > 200 µM
[6]
  IC50: 62.3 µM
[7]
  IC50: 62.3 µM
[8]
  IC50: 33.4 µM

## COc1ccc(C(=O)C[n+]2ccn(-c3ccc(CC(C)=O)cc3)c2)cc1
[1]
  IC50: 44.4 µM
[2]
  IC50: 14.5 µM
[3]
  IC50: 61.1 µM
[4]
  IC50: 140 µM
[5]
  IC50: 16.7 µM
[6]
  IC50: 91.6 µM
[7]
  IC50: 84.8 µM
[8]
  IC50: 26.5 µM

## Cc1cc(C)c(-n2c[n+](CC(=O)c3ccc4ccccc4c3)c(C)c2C)c(C)c1
[1]
  IC50: 4.1 µM
[2]
  IC50: 3.9 µM
[3]
  IC50: 3.7 µM
[4]
  IC50: 1.7 µM
[5]
  IC50: 0.2 µM
[6]
  IC50: 9.8 µM
[7]
  IC50: 1.9 µM
[8]
  IC50: 4.3 µM

## COc1ccc(C(=O)C[n+]2ccn(-c3ccc([N+](=O)[O-])cc3)c2)cc1
[1]
  IC50: 8.6 µM
[2]
  IC50: 75.5 µM
[3]
  IC50: 26.6 µM
[4]
  IC50: 113 µM
[5]
  IC50: 113 µM
[6]
  IC50: > 200 µM
[7]
  IC50: 41.6 µM
[8]
  IC50: 97.6 µM

## Cc1cc(C)c(-n2cc[n+](CC(=O)c3ccccc3)c2)c(C)c1
[1]
  IC50: 31.3 µM
[2]
  IC50: 15.6 µM
[3]
  IC50: 29.9 µM
[4]
  IC50: > 200 µM
[5]
  IC50: > 200 µM
[6]
  IC50: 16.8 µM
[7]
  IC50: 97.6 µM
[8]
  IC50: > 200 µM

## O=C(C[n+]1ccn(C23CC4CC(CC(C4)C2)C3)c1)c1ccc2ccccc2c1
[1]
  IC50: 4.2 µM
[2]
  IC50: 6.4 µM
[3]
  IC50: 4 µM
[4]
  IC50: 12.8 µM
[5]
  IC50: 3.4 µM
[6]
  IC50: 7.7 µM
[7]
  IC50: 0.8 µM
[8]
  IC50: 0.8 µM

## COc1ccc(C(=O)C[n+]2ccn(-c3c(C)cc(C)cc3C)c2)cc1
[1]
  IC50: 3.1 µM
[2]
  IC50: 1.7 µM
[3]
  IC50: 1.6 µM
[4]
  IC50: 5 µM
[5]
  IC50: 2.4 µM
[6]
  IC50: 4.7 µM
[7]
  IC50: 1.5 µM
[8]
  IC50: 2.2 µM

## CC(C)c1cccc(C(C)C)c1-n1cc[n+](CC(=O)c2ccc(Br)cc2)c1
[1]
  IC50: 3.8 µM
[2]
  IC50: 4.6 µM
[3]
  IC50: 11.3 µM
[4]
  IC50: 35.3 µM
[5]
  IC50: 2.8 µM
[6]
  IC50: 10.9 µM
[7]
  IC50: 9.2 µM
[8]
  IC50: 18.4 µM

## COc1ccc(C(=O)C[n+]2ccn(C(C)(C)C)c2)cc1
[1]
  IC50: > 200 µM
[2]
  IC50: 66.2 µM
[3]
  IC50: > 200 µM
[4]
  IC50: > 200 µM
[5]
  IC50: > 200 µM
[6]
  IC50: > 200 µM
[7]
  IC50: 117 µM
[8]
  IC50: 179 µM

## Cc1cc(C)c(-n2cc[n+](CC(=O)c3ccc4c(c3)COC4)c2)c(C)c1
[1]
  IC50: 6.1 µM
[2]
  IC50: 18.2 µM
[3]
  IC50: 31.5 µM
[4]
  IC50: 85.3 µM
[5]
  IC50: 70.1 µM
[6]
  IC50: 33.5 µM
[7]
  IC50: 12.3 µM
[8]
  IC50: 23.5 µM

## Cc1cc(C)c(-n2cc[n+](CC(=O)C(C)(C)C)c2)c(C)c1
[1]
  IC50: 113 µM
[2]
  IC50: > 200 µM
[3]
  IC50: 192 µM
[4]
  IC50: > 200 µM
[5]
  IC50: > 200 µM
[6]
  IC50: 154 µM
[7]
  IC50: 132 µM
[8]
  IC50: > 200 µM

## COc1ccc(C(=O)C[n+]2ccn(C34CC5CC(CC(C5)C3)C4)c2)cc1
[1]
  IC50: 14.7 µM
[2]
  IC50: 6.3 µM
[3]
  IC50: 5.6 µM
[4]
  IC50: 158 µM
[5]
  IC50: 1.5 µM
[6]
  IC50: 27.9 µM
[7]
  IC50: 7.1 µM
[8]
  IC50: 59.3 µM

## CC(=O)Cc1ccc(-n2cc[n+](CC(=O)c3ccccc3)c2)cc1
[1]
  IC50: 25.8 µM
[2]
  IC50: 7 µM
[3]
  IC50: > 200 µM
[4]
  IC50: > 200 µM
[5]
  IC50: > 200 µM
[6]
  IC50: 53.4 µM
[7]
  IC50: > 200 µM
[8]
  IC50: 53.5 µM
